Measured values published in patent EP4562003B1, “NOVEL 7-SUBSTITUTED INDOLE SULFONAMIDE DERIVATIVES” (F. Hoffmann-La Roche AG, priority 2022, dated 2024).

Target: human GPR17 short isoform (Homo sapiens, UniProt Q13304)
Assay: GPR17 cAMP assay (TR-FRET cAMP quantification, antagonist mode)
Format: cell-based
Settings: CHO-K1 cells stably expressing human GPR17 short isoform; EC80 of agonist MDL29,951; forskolin 15µM; IBMX 0.5mM; 30 minutes at room temperature; read-out: hGPR17 cAMP IC50
Description: GPR17 cAMP Assay Protocol:
CHO-K1 cells stably expressing vector containing untagged human GPR17 short isoform (Roche) were cultured at 37°C / 5% CO2 in DMEM (Dulbecco's Modified Eagle Medium):F-12 (1:1) supplemented with 10% foetal bovine serum and 400 µg/ml Geneticin.
Changes in intracellular cyclic adenosine monophosphate (cAMP) levels were quantified using the Nano-TRF Detection Assay kit (Roche Diagnostics, Cat. No. 05214386001). This assay allows for direct cAMP quantification in a homogeneous solution. cAMP is detected based on time-resolved fluorescence energy transfer (TR-FRET) and competitive binding of ruthenylated cAMP and endogenous cAMP to an anti-cAMP monoclonal antibody labeled with AlexaFluor-700. The Ruthenium complex serves as the FRET donor and transfers energy to AlexaFluor-700. The FRET signal is inversely proportional to the cAMP concentration.
CHO-GPR17S cells were detached with Accutase and resuspended in assay buffer consisting of Hank's Balanced Salt Solution (HBSS), 10mM HEPES (4-(2-hydroxyethyl) piperazine-1-ethanesulfonic acid solution) and 0.1% bovine serum albumin (pH 7.4). The cells were seeded in black 384-well plates (Corning) at a density of 10'000 cells / 20µl assay buffer until the addition of compounds.
Test antagonist compounds were serially diluted in dimethyl sulfoxide (DMSO) and spotted in 384-well plates. The compounds were then diluted in HBSS buffer supplemented with an EC80 concentration of MDL29,951 (3-(2-Carboxy-4,6-dichloroindol-3-yl)propionic acid) (GPR17 agonist) plus 3-Isobutyl-1-methylxanthine (IBMX) (0.5mM final concentration) and added to the cells at room temperature. Forskolin (15µM final concentration) was added 5 minutes after the test compounds and the cells were incubated at room temperature for 30 minutes. The assay was stopped by adding cAMP detection mix (containing detergents for cell lysis) for 90 minutes at room temperature.
Cellular cAMP was measured using a Paradigm reader (Molecular Devices). The raw data was used to calculate the FRET signal based on the assay's P-factor as per cAMP kit instructions. The data was normalized to the maximal activity of a reference antagonist and dose response curves were fitted to the percent activity of the test compounds using a sigmoidal dose response model (Genedata Screener).
Results in the hGPR17 cAMP assay are provided for compounds of formula I in Table 1 Table 1: […]

Chain of human GPR17 short isoform (Q13304 29-367): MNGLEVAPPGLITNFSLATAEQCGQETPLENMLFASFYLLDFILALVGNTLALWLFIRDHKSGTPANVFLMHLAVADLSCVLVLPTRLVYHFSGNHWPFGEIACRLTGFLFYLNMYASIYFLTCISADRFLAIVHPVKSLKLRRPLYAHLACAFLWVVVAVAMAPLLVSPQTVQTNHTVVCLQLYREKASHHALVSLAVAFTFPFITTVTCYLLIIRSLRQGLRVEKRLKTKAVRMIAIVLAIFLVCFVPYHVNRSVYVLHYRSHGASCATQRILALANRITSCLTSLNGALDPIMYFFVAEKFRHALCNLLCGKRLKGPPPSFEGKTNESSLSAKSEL

| SMILES | IC50 |
| --- | --- |
| COc1nc(NS(=O)(=O)c2c[nH]c3c(-c4ncccn4)c(Cl)ccc23)nc(OC)c1OCC(F)F [Example 1, 6-chloro-N-[5-(2,2-difluoroethoxy)-4,6-dimethoxy-pyrimidin-2-yl]-7-(2-pyrimidyl)-1H-indole-3-sulfonamide] | 48 nM |
| COc1nc(NS(=O)(=O)c2c[nH]c3c(-c4ncco4)c(Cl)ccc23)nc(OC)c1OCC(F)F [Example 2, 6-chloro-N-[5-(2,2-difluoroethoxy)-4,6-dimethoxy-pyrimidin-2-yl]-7-oxazol-2-yl-1H-indole-3-sulfonamide] | 98 nM |
| COc1nc(NS(=O)(=O)c2c[nH]c3c(-c4ncccn4)c(Cl)ccc23)nc(OC)c1CC(F)F [Example 3, 6-chloro-N-[5-(2,2-difluoroethyl)-4,6-dimethoxy-pyrimidin-2-yl]-7-(2-pyrimidyl)-1H-indole-3-sulfonamide] | 46 nM |
| COc1nc(NS(=O)(=O)c2c[nH]c3c(-c4nccn4C)cccc23)nc(OC)c1CC(F)F [Example 5, N-[5-(2,2-difluoroethyl)-4,6-dimethoxy-pyrimidin-2-yl]-7-(1-methylimidazol-2-yl)-1H-indole-3-sulfonamide] | 26 nM |
| COc1nc(NS(=O)(=O)c2c[nH]c3c(-c4nccn4C)c(F)ccc23)nc(OC)c1OCC(F)F [Example 9, N-[5-(2,2-difluoroethoxy)-4,6-dimethoxy-pyrimidin-2-yl]-6-fluoro-7-(1-methylimidazol-2-yl)-1H-indole-3-sulfonamide] | 69 nM |
| COc1nc(NS(=O)(=O)c2c[nH]c3c(-c4cccnn4)cccc23)nc(OC)c1CC(F)F [Example 11, N-[5-(2,2-difluoroethyl)-4,6-dimethoxy-pyrimidin-2-yl]-7-pyridazin-3-yl-1H-indole-3-sulfonamide] | 50 nM |
| COc1nc(NS(=O)(=O)c2c[nH]c3c(-c4cccnn4)cccc23)nc(OC)c1OCC(F)F [Example 12, N-[5-(2,2-difluoroethoxy)-4,6-dimethoxy-pyrimidin-2-yl]-7-pyridazin-3-yl-1H-indole-3-sulfonamide] | 85 nM |
| COc1nc(NS(=O)(=O)c2c[nH]c3c(-c4nnccc4C)cccc23)nc(OC)c1OCC(F)F [Example 13, N-[5-(2,2-difluoroethoxy)-4,6-dimethoxy-pyrimidin-2-yl]-7-(4-methylpyridazin-3-yl)-1H-indole-3-sulfonamide] | 57 nM |
| COc1nc(NS(=O)(=O)c2c[nH]c3c(-c4cnccn4)c(Cl)ccc23)nc(OC)c1CC(F)F [Example 15, 6-chloro-N-[5-(2,2-difluoroethyl)-4,6-dimethoxy-pyrimidin-2-yl]-7-pyrazin-2-yl-1H-indole-3-sulfonamide] | 27 nM |
| COc1nc(NS(=O)(=O)c2c[nH]c3c(-c4ncccn4)cccc23)nc(OC)c1CC(F)F [Example 17, N-[5-(2,2-difluoroethyl)-4,6-dimethoxy-pyrimidin-2-yl]-7-(2-pyrimidyl)-1H-indole-3-sulfonamide] | 806 nM |
| COc1nc(NS(=O)(=O)c2c[nH]c3c(-c4ncccn4)c(Cl)ccc23)nc(OC)c1OCCF [Example 22, 6-chloro-N-[5-(2-fluoroethoxy)-4,6-dimethoxy-pyrimidin-2-yl]-7-(2-pyrimidyl)-1H-indole-3-sulfonamide] | 80 nM |
| COc1nc(NS(=O)(=O)c2c[nH]c3c(-c4ncccn4)c(Cl)ccc23)nc(OC)c1OC(F)F [Example 23, 6-chloro-N-[5-(difluoromethoxy)-4,6-dimethoxy-pyrimidin-2-yl]-7-(2-pyrimidyl)-1H-indole-3-sulfonamide] | 50 nM |
| COc1nc(NS(=O)(=O)c2c[nH]c3c(-c4ncccn4)c(Cl)ccc23)nc(OC)c1C1CC1C#N (centres unmarked) [Example 24, 6-chloro-N-[5-(2-cyanocyclopropyl)-4,6-dimethoxy-pyrimidin-2-yl]-7-(2-pyrimidyl)-1H-indole-3-sulfonamide] | 61 nM |
| COc1nc(NS(=O)(=O)c2c[nH]c3c(-c4cnccn4)cccc23)nc(OC)c1CC(F)F [Example 25, N-[5-(2,2-difluoroethyl)-4,6-dimethoxy-pyrimidin-2-yl]-7-pyrazin-2-yl-1H-indole-3-sulfonamide] | 56 nM |
| COc1nc(NS(=O)(=O)c2c[nH]c3c(-c4ncccn4)c(F)ccc23)nc(OC)c1OCC(F)F [Example 26, N-[5-(2,2-difluoroethoxy)-4,6-dimethoxy-pyrimidin-2-yl]-6-fluoro-7-(2-pyrimidyl)-1H-indole-3-sulfonamide] | 218 nM |
| COc1nc(NS(=O)(=O)c2c[nH]c3c(-c4ncccn4)c(F)ccc23)nc(OC)c1CC(F)F [Example 27, N-[5-(2,2-difluoroethyl)-4,6-dimethoxy-pyrimidin-2-yl]-6-fluoro-7-(2-pyrimidyl)-1H-indole-3-sulfonamide] | 120 nM |
| COc1nc(NS(=O)(=O)c2c[nH]c3c(-c4ncccn4)c(F)ccc23)nc(OC)c1OCCF [Example 28, 6-fluoro-N-[5-(2-fluoroethoxy)-4,6-dimethoxy-pyrimidin-2-yl]-7-(2-pyrimidyl)-1H-indole-3-sulfonamide] | 307 nM |
| COc1nc(NS(=O)(=O)c2c[nH]c3c(-c4ncccn4)c(F)ccc23)nc(OC)c1OC(F)F [Example 29, N-[5-(difluoromethoxy)-4,6-dimethoxy-pyrimidin-2-yl]-6-fluoro-7-(2-pyrimidyl)-1H-indole-3-sulfonamide] | 604 nM |

More lines, in order of falling IC50, values ahead:

| IC50 | SMILES |
| --- | --- |
| 44 nM | COc1nc(NS(=O)(=O)c2c[nH]c3c(-c4cccnn4)c(Cl)ccc23)nc(OC)c1OCC(F)F [Example 4, 6-chloro-N-[5-(2,2-difluoroethoxy)-4,6-dimethoxy-pyrimidin-2-yl]-7-pyridazin-3-yl-1H-indole-3-sulfonamide] |
| 42 nM | COc1nc(NS(=O)(=O)c2c[nH]c3c(-c4cccnn4)c(Cl)ccc23)nc(OC)c1CC(F)F [Example 6, 6-chloro-N-[5-(2,2-difluoroethyl)-4,6-dimethoxy-pyrimidin-2-yl]-7-pyridazin-3-yl-1H-indole-3-sulfonamide] |
| 40 nM | COc1nc(NS(=O)(=O)c2c[nH]c3c(-c4cnccn4)c(Cl)ccc23)nc(OC)c1OCCF [Example 21, 6-chloro-N-[5-(2-fluoroethoxy)-4,6-dimethoxy-pyrimidin-2-yl]-7-pyrazin-2-yl-1H-indole-3-sulfonamide] |
| 39 nM | COc1nc(NS(=O)(=O)c2c[nH]c3c(-c4nccn4C)c(Cl)ccc23)nc(OC)c1OCC(F)F [Example 8, 6-chloro-N-[5-(2,2-difluoroethoxy)-4,6-dimethoxy-pyrimidin-2-yl]-7-(1-methylimidazol-2-yl)-1H-indole-3-sulfonamide] |
| 34 nM | COc1nc(NS(=O)(=O)c2c[nH]c3c(-c4nccn4C)cccc23)nc(OC)c1OCC(F)F [Example 7, N-[5-(2,2-difluoroethoxy)-4,6-dimethoxy-pyrimidin-2-yl]-7-(1-methylimidazol-2-yl)-1H-indole-3-sulfonamide] |
| 32 nM | COc1nc(NS(=O)(=O)c2c[nH]c3c(-c4cocn4)c(Cl)ccc23)nc(OC)c1OCC(F)F [Example 14, 6-chloro-N-[5-(2,2-difluoroethoxy)-4,6-dimethoxy-pyrimidin-2-yl]-7-oxazol-4-yl-1H-indole-3-sulfonamide] |
| 32 nM | COc1nc(NS(=O)(=O)c2c[nH]c3c(-c4cnccn4)c(Cl)ccc23)nc(OC)c1OC(F)F [Example 20, 6-chloro-N-[5-(difluoromethoxy)-4,6-dimethoxy-pyrimidin-2-yl]-7-pyrazin-2-yl-1H-indole-3-sulfonamide] |
| 30 nM | COc1nc(NS(=O)(=O)c2c[nH]c3c(-c4nccn4C)c(F)ccc23)nc(OC)c1CC(F)F [Example 10, N-[5-(2,2-difluoroethyl)-4,6-dimethoxy-pyrimidin-2-yl]-6-fluoro-7-(1-methylimidazol-2-yl)-1H-indole-3-sulfonamide] |
| 25 nM | COc1nc(NS(=O)(=O)c2c[nH]c3c(-c4cnccn4)c(Cl)ccc23)nc(OC)c1OCC(F)F [Example 16, 6-chloro-N-[5-(2,2-difluoroethoxy)-4,6-dimethoxy-pyrimidin-2-yl]-7-pyrazin-2-yl-1H-indole-3-sulfonamide] |
| 19 nM | COc1nc(NS(=O)(=O)c2c[nH]c3c(-c4ccccn4)c(Cl)ccc23)nc(OC)c1CC(F)F [Example 18, 6-chloro-N-[5-(2,2-difluoroethyl)-4,6-dimethoxy-pyrimidin-2-yl]-7-(2-pyridyl)-1H-indole-3-sulfonamide] |
| 18 nM | COc1nc(NS(=O)(=O)c2c[nH]c3c(-c4ccccn4)c(Cl)ccc23)nc(OC)c1OCC(F)F [Example 19, 6-chloro-N-[5-(2,2-difluoroethoxy)-4,6-dimethoxy-pyrimidin-2-yl]-7-(2-pyridyl)-1H-indole-3-sulfonamide] |
